Experiment [1] concerns human retinal-pigmented epithelial cells (RPECs). Briefly: Confluent RPEC monolayers exposed to solutions; MTT cell viability. Format: cell-based. The following applies: 28 μM, 112 μM and 224 μM bumetanide, ≦200 mM NaCl, 3 μl of 5N NaOH. The protocol:
(§1) As described below, the confluent monolayers of LECs, CEDCs, and RPECs grown in 96-well flat-bottom plates are exposed to varying concentrations of NaCl (an osmolyte) solution. Two hundred μl of NaCl solution (prepared as described below) are added to each well at concentrations of 137 mM, 170 mM, 340 mM, 680 mM, 1360 mM and 2000 mM NaCl, respectively. The solutions have a pH of 8.0±0.4. The concentrations of NaCl correspond to final osmolarities of about 285 to 4000 mOsm/L, respectively.
(§2) The primary and first passages of human lens epithelial cells, human corneal endothelial cells, and human retinal-pigmented epithelial cells are cultured. The LECs, the CEDCs, and the RPECs are isolated from post-mortem eyes by using standard techniques of cell isolation and enzyme digestion. See Uebersax E D, Grindstaff R D and Defoe D M Exp Eye Res. 2000 March; 70(3): 381-90; Wagner L M, Saleh S M, Boyle D J, and Takemoto D J. Mol Vis. 2002 Mar. 14; 8: 59-66; Cammarata P R, Schafer G, Chen S W, Guo Z, and Reeves R E. Invest Ophthalmol Vis Sci. 2002 February; 43(2): 425-33; Rakic J M, Galand A, and Vrensen G F. Exp Eye Res. 2000 November; 71(5): 489-94. LECs and CEDCs are cultured in Eagle's minimum essential medium (MEM). RPECs are cultured in Ham's F10 medium, supplemented with 2 mM glutamine, 25 mmol/L Hepes, pH 7.4, 10 U/mL penicillin, and 10 μg/mL streptomycin and 15% heat-inactivated foetal cow serum (FCS). The primary cultured LECs, CEDCs, and RPECs are sub-cultured at 10^4 cells/wells in 96-well flat-bottom plates until they reached 90 to 100% confluence. These cells are grown to confluence in an incubator with a humidified atmosphere of 5% CO2 at 37° C. The cells are kept in a confluent state for overnight before assays.
(§3) After treatment, the treated cells are thoroughly washed, and cultured with fresh media for twelve hours before cell viability is assessed. The capability of these cells to survive at the indicated hypertonic stress levels is assessed by an MTT assay 12-24 hours post-exposure.
(§4) MTT assay is an assay to assess mitochondria function, performed as described by Mosmann (Mosmann, T. J Immunol Methods. 1983 Dec. 16; 65(1-2): 55-63. The tetrazolium salt 3-(4,5-dimethylthiazol-2-yl)-2,5-diphenyl tetrazolium bromide (MTT; supplied by Sigma Chemical Co.) is dissolved in Phosphate's Balanced Salt (PBS) Solutions at 5 mg/ml and sterilized by passage through a 0.22 μm Millipore filter. MTT stock solution is added to growth media at a ratio of 1 to 10. Cells are incubated with this growth media for three to four hours. In cells that are alive at the time of adding MTT, mitochondrial dehydrogenase cleaves the tetrazolium ring into a dark blue formazan reaction product, which builds up in the cell. MTT-reacted cultures are observed under brightfield microscopy without further processing. Cells in each well are scored as MTT-positive if they are completely filled with reaction product (in the case of unattached cells) or contain many formazan crystals emanating from multiple foci (in the case of attached or spread cells). MTT-reacted cultures are then lysised by dimethyl sulfoxide (DMSO) and read in a Microplate Reader to obtain a measure of cell viability.
Confluent monolayers of RPECs are prepared as described in Example 1. These cells are exposed for ten minutes to 200 μl/well of the solutions comprising increasing concentrations of NaCl (137 mM, 170 mM, 340 mM, 680 mM, 1360 mM and 2000 mM) at varying pH (8.4±0.5 and 10.6±0.5). The solutions of NaCl are prepared as described in Example 1. The pH of the solutions is adjusted with additions of 1 μl and 5 μl of 5N NaOH as described Example 3.
Confluent monolayers of LECs and RPECs are prepared as described in Example 1. […]
Confluent monolayers of LECs, CEDCs and RPECs are prepared as described in Example 1. […]
To assess whether there is any side effect of this treatment on other ocular cells, confluent monolayers of LECs, CEDCs and RPECs are prepared as described in Example 1. […]

For experiment [2], the system named is human corneal endothelial cells (CEDCs). Briefly: Confluent CEDC monolayers exposed to solutions; MTT cell viability. Format: cell-based. The settings on record: 28 μM, 112 μM and 224 μM bumetanide, ≦200 mM NaCl, 3 μl of 5N NaOH. The protocol: as §1
as §2, with “The primary cultured LECs, CEDCs, and RPECs are sub-cultured at 10^4 cells/wells in 96-well flat-bottom plates until they reached 90 to 100% confluence. These cells are grown to confluence in an incubator with a humidified atmosphere of 5% CO2 at 37° C. The cells are kept in a confluent state for overnight before assays.” left out
as §3
as §4, with “MTT-reacted cultures are observed under brightfield microscopy without further processing.” left out, “viability. […]” for “viability.”

A value given as a limit tells only on which side of the number the result lay.

Take `CCCCNc1cc(C(=O)O)cc(S(N)(=O)=O)c1Oc1ccccc1` [bumetanide]: the “RPECs killed or removed” value in experiment [1] is “less than 20%”. The “CEDCs killed or removed” value in experiment [2] is reported as under 30%.
